# In patent US20230373985A1 (Origenis Gmbh, priority 2020, published 2023):
# Experiments:
# [1] = molecular target: T1, wt human LRRK2, catalytic site (Homo sapiens, UniProt Q5S007); assay: TR-FRET LanthaScreen Eu Kinase Binding Assay, LRRK2 wt; conditions: one range stated for wt and G2019, read-out: IC50, Activity Toward LRRK2(Wt)
# T1 construct: 5 nM wt human LRRK2, catalytic site; purchased ThermoFisher
# Procedure, shortened: (§1)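 Competitive tracer-displacement TR-FRET, 1 h at room temperature, read as emission ratio. LRRK2 (wt or G2019S catalytic domain) at 5 nM with 2 nM Eu-anti-GST and 10 nM Tracer 236; full-length NUAK1 at 8 nM with 2 nM Eu-anti-His and 5 nM Tracer 236, all final in Kinase Buffer A.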
# [2] = molecular target: T2, wt human JAK1, catalytic site (Homo sapiens, UniProt P23458); assay: HTRF KinEASE assay, JAK1; format: biochemical; conditions: 2.5 μM ATP; read-out: IC50, Activity Toward JAK1
# T2 construct: wt human JAK1, catalytic site; purchased ThermoFisher
# T2 sequence (P23458 875-1153 limits assumed): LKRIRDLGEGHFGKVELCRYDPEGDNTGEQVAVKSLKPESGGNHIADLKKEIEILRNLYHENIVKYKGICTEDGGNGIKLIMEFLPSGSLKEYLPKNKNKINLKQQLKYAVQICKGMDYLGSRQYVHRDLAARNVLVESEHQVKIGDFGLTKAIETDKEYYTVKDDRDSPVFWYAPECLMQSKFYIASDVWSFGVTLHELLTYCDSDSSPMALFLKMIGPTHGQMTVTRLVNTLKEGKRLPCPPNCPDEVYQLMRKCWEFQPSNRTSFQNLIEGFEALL
# Procedure, shortened: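 Two-step HTRF KinEASE assay: compound, kinase/biotinylated TK substrate and ATP were incubated at least 30 min at room temperature. Antibody plus streptavidin-XL665 was then added and plates were read after 60 min. Inhibition was derived from emission ratios according to the kit protocol.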
# [3] = molecular target: T3, G2019S human LRRK2, catalytic site (Homo sapiens, UniProt Q5S007, G2019S); assay: TR-FRET LanthaScreen Eu Kinase Binding Assay, LRRK2 G2019S; conditions: LRRK2(G2019); one range stated for wt and G2019; read-out: IC50, Activity Toward LRRK2(G2019)
# T3 construct: G2019S human LRRK2, catalytic site; purchased ThermoFisher
# T3 sequence (Q5S007 970-2527 G2019S limits assumed): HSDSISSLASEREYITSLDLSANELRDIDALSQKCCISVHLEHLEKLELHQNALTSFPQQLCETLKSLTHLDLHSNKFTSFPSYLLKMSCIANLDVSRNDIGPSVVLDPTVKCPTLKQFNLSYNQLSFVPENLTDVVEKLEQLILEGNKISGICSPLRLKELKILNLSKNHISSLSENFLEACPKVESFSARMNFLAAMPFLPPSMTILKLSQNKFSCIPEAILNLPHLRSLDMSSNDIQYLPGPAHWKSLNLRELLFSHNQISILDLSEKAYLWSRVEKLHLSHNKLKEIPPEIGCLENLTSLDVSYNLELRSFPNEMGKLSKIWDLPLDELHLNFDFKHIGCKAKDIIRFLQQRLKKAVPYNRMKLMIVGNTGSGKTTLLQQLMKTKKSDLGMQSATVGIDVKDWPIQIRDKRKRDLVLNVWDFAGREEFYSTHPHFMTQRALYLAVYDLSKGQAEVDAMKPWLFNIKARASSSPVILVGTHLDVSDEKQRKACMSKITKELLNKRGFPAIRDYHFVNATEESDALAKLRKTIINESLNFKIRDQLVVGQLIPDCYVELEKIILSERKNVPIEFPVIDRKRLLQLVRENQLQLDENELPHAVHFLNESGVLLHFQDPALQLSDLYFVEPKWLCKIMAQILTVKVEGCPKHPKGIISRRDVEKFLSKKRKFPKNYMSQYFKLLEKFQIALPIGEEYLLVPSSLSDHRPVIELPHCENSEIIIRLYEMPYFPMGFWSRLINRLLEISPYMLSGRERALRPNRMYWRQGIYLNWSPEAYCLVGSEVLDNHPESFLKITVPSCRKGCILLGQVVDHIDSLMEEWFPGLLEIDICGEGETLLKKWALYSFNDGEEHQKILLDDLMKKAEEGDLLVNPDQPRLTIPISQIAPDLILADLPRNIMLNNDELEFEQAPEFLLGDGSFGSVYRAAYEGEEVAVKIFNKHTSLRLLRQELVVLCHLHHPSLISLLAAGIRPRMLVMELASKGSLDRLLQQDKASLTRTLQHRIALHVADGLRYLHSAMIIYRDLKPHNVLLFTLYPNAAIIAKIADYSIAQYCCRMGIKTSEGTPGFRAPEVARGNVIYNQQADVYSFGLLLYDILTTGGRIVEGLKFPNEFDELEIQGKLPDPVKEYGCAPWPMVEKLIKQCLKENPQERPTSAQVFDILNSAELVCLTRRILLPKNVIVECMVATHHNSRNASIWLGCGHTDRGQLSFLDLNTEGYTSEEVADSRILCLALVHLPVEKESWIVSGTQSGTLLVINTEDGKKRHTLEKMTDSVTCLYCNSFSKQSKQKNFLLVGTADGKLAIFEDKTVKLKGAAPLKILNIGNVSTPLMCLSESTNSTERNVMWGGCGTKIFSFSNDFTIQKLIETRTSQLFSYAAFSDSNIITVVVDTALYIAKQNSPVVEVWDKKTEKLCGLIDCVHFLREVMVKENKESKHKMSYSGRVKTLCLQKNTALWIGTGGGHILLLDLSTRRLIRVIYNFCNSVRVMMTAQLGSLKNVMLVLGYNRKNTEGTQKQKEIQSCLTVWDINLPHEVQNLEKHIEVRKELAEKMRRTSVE
# Procedure, shortened: as §1
# [4] = molecular target: T4, wt human TYK2, catalytic site (Homo sapiens, UniProt P29597); assay: HTRF KinEASE assay, TYK2; format: biochemical; conditions: 1 μM ATP; read-out: IC50, Activity Toward TYK2
# T4 construct: wt human TYK2, catalytic site; purchased SignalChem
# T4 sequence (P29597 897-1176 limits assumed): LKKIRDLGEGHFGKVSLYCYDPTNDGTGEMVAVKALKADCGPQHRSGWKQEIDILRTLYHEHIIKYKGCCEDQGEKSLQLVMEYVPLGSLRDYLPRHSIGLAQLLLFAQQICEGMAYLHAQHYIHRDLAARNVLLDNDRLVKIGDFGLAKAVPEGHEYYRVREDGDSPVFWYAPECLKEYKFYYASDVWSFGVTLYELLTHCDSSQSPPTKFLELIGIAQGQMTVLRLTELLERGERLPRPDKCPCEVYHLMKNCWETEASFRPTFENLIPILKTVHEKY
# Procedure, shortened: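 HTRF KinEASE-TK readout with 1 μM biotinylated TK substrate in 1× kinase buffer, ≥30 min at room temperature, then antibody/streptavidin-XL665 detection for 60 min. TYK2 at 2 nM with 1 μM ATP; JAK2 at 1 nM with 100 μM ATP. Analysis uses emission ratios.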
# T1 sequence (Q5S007 970-2527 limits assumed): as the sequence (Q5S007 970-2527 G2019S limits assumed) above, with S1050G counted along it
IC50 [1] [nM],IC50 [2] [nM],IC50 [3] [nM],IC50 [4] [nM],Structure (SMILES)
10 to 100,100 to 1000,10 to 100,10 to 100,"CCn1cc(C(F)(F)F)nc1-c1ccc(Nc2cn(-c3c(F)cccc3F)nc2C(N)=O)cc1 [compound 304, 1-(2,6-difluorophenyl)-4-((4-(1-ethyl-4-(trifluoromethyl)-1H-imidazol-2-yl)phenyl)amino)-1H-pyrazole-3-carboxamide]"
100 to 1000,10 to 100,100 to 1000,< 10,"Cn1cc(C(F)(F)F)nc1-c1ccc(Nc2cn(-c3c(F)cccc3Cl)nc2C(N)=O)cc1 [compound 305, 1-(2-chloro-6-fluorophenyl)-4-((4-(1-methyl-4-(trifluoromethyl)-1H-imidazol-2-yl)phenyl)amino)-1H-pyrazole-3-carboxamide]"
100 to 1000,10 to 100,100 to 1000,10 to 100,"CCn1cc(C#N)nc1-c1ccc(Nc2cn(-c3c(Cl)cccc3Cl)nc2C(N)=O)cc1 [compound 310, 4-((4-(4-cyano-1-ethyl-1H-imidazol-2-yl)phenyl)amino)-1-(2,6-dichlorophenyl)-1H-pyrazole-3-carboxamide]"
100 to 1000,10 to 100,100 to 1000,< 10,"NC(=O)c1nn(-c2c(Cl)cccc2Cl)cc1Nc1ccc(C(=O)N2CC[C@@H](F)C2)cc1 [compound 315, (R)-1-(2,6-dichlorophenyl)-4-((4-(3-fluoropyrrolidine-1-carbonyl)phenyl)amino)-1H-pyrazole-3-carboxamide]"
100 to 1000,10 to 100,100 to 1000,< 10,"NC(=O)c1nn(-c2c(Cl)cccc2Cl)cc1Nc1ccc(C(=O)N2CC[C@H](F)C2)cc1 [compound 316, (S)-1-(2,6-dichlorophenyl)-4-((4-(3-fluoropyrrolidine-1-carbonyl)phenyl)amino)-1H-pyrazole-3-carboxamide]"
100 to 1000,10 to 100,100 to 1000,10 to 100,"NC(=O)c1nn(-c2c(Cl)cccc2Cl)cc1Nc1ccc(-c2ccnnc2)cc1 [compound 321, 1-(2,6-dichlorophenyl)-4-((4-(pyridazin-4-yl)phenyl)amino)-1H-pyrazole-3-carboxamide]"
100 to 1000,10 to 100,100 to 1000,10 to 100,"Cc1ncnn1-c1ccc(Nc2cn(-c3c(Cl)cccc3Cl)nc2C(N)=O)cc1 [compound 326, 1-(2,6-dichlorophenyl)-4-((4-(5-methyl-1H-1,2,4-triazol-1-yl)phenyl)amino)-1H-pyrazole-3-carboxamide]"
100 to 1000,100 to 1000,100 to 1000,10 to 100,"NC(=O)c1nn(-c2c(Cl)cccc2Cl)cc1Nc1ccc(C(=O)N2CC[C@H](F)C2)nc1 [compound 355, (S)-1-(2,6-dichlorophenyl)-4-((6-(3-fluoropyrrolidine-1-carbonyl)pyridin-3-yl)amino)-1H-pyrazole-3-carboxamide]"
100 to 1000,10 to 100,100 to 1000,10 to 100,"Cc1cccc2nnc(-c3ccc(Nc4cn(-c5c(Cl)cccc5Cl)nc4C(N)=O)cc3)n12 [compound 376, 1-(2,6-dichlorophenyl)-4-((4-(5-methyl-[1,2,4]triazolo[4,3-a]pyridin-3-yl)phenyl)amino)-1H-pyrazole-3-carboxamide]"
100 to 1000,10 to 100,100 to 1000,10 to 100,"NC(=O)c1nn(-c2c(Cl)cccc2Cl)cc1Nc1cnn(-c2ncccc2F)c1 [compound 386, 1-(2,6-dichlorophenyl)-4-((1-(3-fluoropyridin-2-yl)-1H-pyrazol-4-yl)amino)-1H-pyrazole-3-carboxamide]"
100 to 1000,10 to 100,100 to 1000,10 to 100,"N#Cc1cn(CCO)c(-c2ccc(Nc3cn(-c4c(Cl)cccc4Cl)nc3C(N)=O)cn2)n1 [compound 387, 4-((6-(4-cyano-1-(2-hydroxyethyl)-1H-imidazol-2-yl)pyridin-3-yl)amino)-1-(2,6-dichlorophenyl)-1H-pyrazole-3-carboxamide]"
100 to 1000,10 to 100,100 to 1000,10 to 100,"Cc1cccc2nnc(-c3ccc(Nc4cn(-c5c(Cl)cccc5Cl)nc4C(N)=O)cn3)n12 [compound 388, 1-(2,6-dichlorophenyl)-4-((6-(5-methyl-[1,2,4]triazolo[4,3-a]pyridin-3-yl)pyridin-3-yl)amino)-1H-pyrazole-3-carboxamide]"
100 to 1000,10 to 100,100 to 1000,10 to 100,"Cc1cnnn1-c1ccc(Nc2cn(-c3c(Cl)cccc3Cl)nc2C(N)=O)cc1 [compound 391, 1-(2,6-dichlorophenyl)-4-((4-(5-methyl-1H-1,2,3-triazol-1-yl)phenyl)amino)-1H-pyrazole-3-carboxamide]"
100 to 1000,100 to 1000,100 to 1000,100 to 1000,"Cc1ccncc1-c1ccc(Nc2cn(-c3c(Cl)cccc3Cl)nc2C(N)=O)cn1 [compound 394, 1-(2,6-dichlorophenyl)-4-((4′-methyl-[2,3′-bipyridin]-5-yl)amino)-1H-pyrazole-3-carboxamide]"
100 to 1000,100 to 1000,100 to 1000,100 to 1000,"Cc1cccnc1-c1ccc(Nc2cn(-c3c(Cl)cccc3Cl)nc2C(N)=O)cn1 [compound 395, 1-(2,6-dichlorophenyl)-4-((3′-methyl-[2,2′-bipyridin]-5-yl)amino)-1H-pyrazole-3-carboxamide]"
100 to 1000,100 to 1000,100 to 1000,10 to 100,"CC(C)n1cnnc1-c1ccc(Nc2cn(-c3c(Cl)cccc3Cl)nc2C(N)=O)cn1 [compound 400, 1-(2,6-dichlorophenyl)-4-((6-(4-isopropyl-4H-1,2,4-triazol-3-yl)pyridin-3-yl)amino)-1H-pyrazole-3-carboxamide]"
100 to 1000,10 to 100,100 to 1000,< 10,"NC(=O)c1nn(-c2c(Cl)cccc2Cl)cc1Nc1ccc(-c2nncn2/C=C/F)cc1 [compound 415, (E)-1-(2,6-dichlorophenyl)-4-((4-(4-(2-fluorovinyl)-4H-1,2,4-triazol-3-yl)phenyl)amino)-1H-pyrazole-3-carboxamide]"
100 to 1000,10 to 100,100 to 1000,10 to 100,"CCn1cnnc1-c1ccc(Nc2cn(-c3c(Cl)ccc(F)c3Cl)nc2C(N)=O)cc1 [compound 418, 1-(2,6-dichloro-3-fluorophenyl)-4-((4-(4-ethyl-4H-1,2,4-triazol-3-yl)phenyl)amino)-1H-pyrazole-3-carboxamide]"
100 to 1000,10 to 100,100 to 1000,10 to 100,"NC(=O)c1nn(-c2c(Cl)cccc2Cl)cc1Nc1ccc(C(=O)NCCF)cc1 [compound 421, 1-(2,6-dichlorophenyl)-4-((4-((2-fluoroethyl)carbamoyl)phenyl)amino)-1H-pyrazole-3-carboxamide]"
100 to 1000,10 to 100,100 to 1000,< 10,"NC(=O)c1nn(-c2c(Cl)cccc2Cl)cc1Nc1ccc(C(=O)N2CC(O)C2)cc1 [compound 426, 1-(2,6-dichlorophenyl)-4-((4-(3-hydroxyazetidine-1-carbonyl)phenyl)amino)-1H-pyrazole-3-carboxamide]"
100 to 1000,< 10,100 to 1000,10 to 100,"Cc1cncc2nnc(-c3ccc(Nc4cn(-c5c(Cl)cccc5Cl)nc4C(N)=O)cn3)n12 [compound 436, 1-(2,6-dichlorophenyl)-4-((6-(5-methyl-[1,2,4]triazolo[4,3-a]pyrazin-3-yl)pyridin-3-yl)amino)-1H-pyrazole-3-carboxamide]"
100 to 1000,10 to 100,100 to 1000,< 10,"N#Cc1cccc(F)c1-n1cc(Nc2ccc(C(=O)N3CC[C@@H](F)C3)cc2)c(C(N)=O)n1 [compound 450, (R)-1-(2-cyano-6-fluorophenyl)-4-((4-(3-fluoropyrrolidine-1-carbonyl)phenyl)amino)-1H-pyrazole-3-carboxamide]"
100 to 1000,10 to 100,100 to 1000,< 10,"CC1(C)CN(C(=O)c2ccc(Nc3cn(-c4c(Cl)cccc4Cl)nc3C(N)=O)cc2)C1 [compound 456, 1-(2,6-dichlorophenyl)-4-((4-(3,3-dimethylazetidine-1-carbonyl)phenyl)amino)-1H-pyrazole-3-carboxamide]"
